Our source for the IC50 and Ki values is patent US7432376B2, “Tropane prodrugs with central nervous system activity” (Research Foundation of State University of New York, The, priority 2006, dated 2008).

The target of test [1] is T1, dopamine transport sites (DAT) (Rattus norvegicus, UniProt P23977).
T1 construct: tissue Pel-Freez, Rogers, Ark; host or cells: rat striatum membranes
The experiment in a line: Displacement of [125I]RTI-55 binding at dopamine transport sites in membranes from rat striatum. Also noted: species or system Sprague-Dawley rat. The protocol: (§1) Binding of at biogenic amine transporters was determined using striatum and frontal cortex dissected from frozen Sprague-Dawley rat brains (Pel-Freez, Rogers, Ark.). […] Affinities of analogs at 5-HT transport sites were determined by displacement of [^3H]paroxetine binding in membranes from rat frontal cortex, using 50 mg (original wet weight) of membranes and 0.4 nM [^3H]paroxetine. Non-specific binding was determined in the presence of 10 μM fluoxetine. Binding of analogs at norepinephrine transport sites was determined by displacement of [^3H]nisoxetine binding in membranes from rat forebrain, using 0.7 nM [^3H]nisoxetine. Non-specific binding was determined in the presence of 1 μM desipramine.
(§2) Potencies were calculated from displacement curves using 7-10 concentrations of unlabeled analogs, as analyzed by non-linear curve fitting. […] For [^3H]paroxetine and [^3H]nisoxetine binding assays, Ki values were calculated using the Cheng-Prusoff equation.^1 All data are mean values±S.E.M. of at least three separate experiments, each of which was conducted in triplicate.

The target of test [2] is T2, 5-HT transport sites (SERT) (Rattus norvegicus, UniProt P31652).
T2 construct: tissue Pel-Freez, Rogers, Ark; host or cells: rat frontal cortex membranes
T2 sequence (P31652 whole entry): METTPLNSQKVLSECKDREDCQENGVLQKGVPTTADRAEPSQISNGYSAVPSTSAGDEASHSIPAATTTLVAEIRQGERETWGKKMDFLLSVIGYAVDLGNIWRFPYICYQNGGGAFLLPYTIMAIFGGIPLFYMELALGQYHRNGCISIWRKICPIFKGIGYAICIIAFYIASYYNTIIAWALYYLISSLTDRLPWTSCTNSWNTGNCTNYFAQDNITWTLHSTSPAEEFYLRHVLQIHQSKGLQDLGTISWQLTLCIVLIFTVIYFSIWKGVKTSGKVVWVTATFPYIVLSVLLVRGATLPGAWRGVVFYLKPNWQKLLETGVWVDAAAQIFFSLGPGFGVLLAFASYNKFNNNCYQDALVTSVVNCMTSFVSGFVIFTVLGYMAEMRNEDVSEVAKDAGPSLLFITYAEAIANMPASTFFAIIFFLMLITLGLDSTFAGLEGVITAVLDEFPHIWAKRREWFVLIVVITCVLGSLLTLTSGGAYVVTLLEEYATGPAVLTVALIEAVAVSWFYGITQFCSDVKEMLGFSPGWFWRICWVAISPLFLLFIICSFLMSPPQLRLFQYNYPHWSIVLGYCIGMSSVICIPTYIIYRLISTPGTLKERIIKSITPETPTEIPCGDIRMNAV
The experiment in a line: Displacement of [3H]paroxetine binding at 5-HT transport sites in membranes from rat frontal cortex. Details: species or system Sprague-Dawley rat. As for the experimental part: as §1, §2

Molecules are shown by their SMILES. Like-named read-outs stand apart in the source and are kept apart here. Where only a bound is given, the exact number is not on record here.

T1 sequence (P23977 whole entry): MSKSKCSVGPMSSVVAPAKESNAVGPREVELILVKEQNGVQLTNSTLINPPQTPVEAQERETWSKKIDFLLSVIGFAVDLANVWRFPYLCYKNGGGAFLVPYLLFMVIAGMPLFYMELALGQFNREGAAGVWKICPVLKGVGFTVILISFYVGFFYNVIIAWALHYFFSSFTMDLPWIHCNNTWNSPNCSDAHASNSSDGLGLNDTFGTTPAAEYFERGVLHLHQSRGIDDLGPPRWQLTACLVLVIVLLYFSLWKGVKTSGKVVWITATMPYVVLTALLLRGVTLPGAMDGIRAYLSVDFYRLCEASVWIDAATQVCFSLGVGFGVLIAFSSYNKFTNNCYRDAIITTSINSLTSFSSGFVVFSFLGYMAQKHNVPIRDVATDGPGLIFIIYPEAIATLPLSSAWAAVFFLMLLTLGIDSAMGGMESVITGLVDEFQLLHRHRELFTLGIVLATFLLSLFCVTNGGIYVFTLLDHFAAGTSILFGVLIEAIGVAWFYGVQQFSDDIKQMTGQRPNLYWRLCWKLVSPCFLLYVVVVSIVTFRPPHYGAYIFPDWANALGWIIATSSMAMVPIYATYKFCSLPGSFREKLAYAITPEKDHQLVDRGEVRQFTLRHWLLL

For the compound `CCCCCCCCCCCC(=O)OC(CC)C1C(c2ccc3ccccc3c2)CC2CCC1N2C` (stereo not drawn) [Compound 43b], the IC50 in test [1] stood at 109 nM. The compound also returned a Ki in test [2] of 90.8 nM.
In test [1], `CCC(OC(C)=O)C1C(c2ccc(C)cc2)CC2CCC1N2C` (stereo not drawn) [Compound 42a] gave an IC50 of 87.9 nM. This compound gave a Ki in test [2] of more than 10000 nM.
In the same order, the values of `CCC(O)C1C(c2ccc3ccccc3c2)CC2CCC1N2C` (stereo not drawn) [Compound 41b] are 6.22 nM and 588 nM.
In test [1], `CCC(O)C1C(c2ccc(C)cc2)CC2CCC1N2C` (stereo not drawn) [Compound 41a] had an IC50 of 3.69 nM. This compound yielded a Ki in test [2] of 161 nM.
For the compound `CCCCCCCCCCCC(=O)OC(CC)C1C(c2ccc(C)cc2)CC2CCC1N2C` (stereo not drawn) [Compound 43a], the IC50 in test [1] (rat striatum membranes, 10 pM [125I]RTI-55, mean of at least three experiments, read-out: IC50 DA) turned out to be 0.891 nM. For the same compound, the inhibitory constant (Ki) in test [2] (rat frontal cortex membranes, 0.4 nM [3H]paroxetine, Ki by Cheng-Prusoff, mean of at least three experiments, read-out: Ki SERT) stood at 1.91 nM.
In test [1], `CCC(OC(C)=O)C1C(c2ccc3ccccc3c2)CC2CCC1N2C` (stereo not drawn) [Compound 42b] had an IC50 of 1.72 nM. This compound also returned a Ki in test [2] of 1.06 nM.
